Consider eight compounds from ChEMBL document CHEMBL1201862, “PubChem BioAssay data set” (2004).

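Values below derive from 48-hour exposures of cells grown in 96-well plates, with endpoints linearly interpolated between the two concentrations bracketing the appropriate inhibition level. Here, GI50 denotes the concentration required for 50% inhibition of growth.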 Active and inactive are the calls of the source. Rule as the data show it: active = GI50 up to about 1.1 µM and inactive = higher.

Some test systems named below: M14; A549; SR; UACC-257; SK-OV-3; OVCAR-8; ACHN; RXF 393; K562; NCI-H226; EKVX; Malme-3M; SW-620; TK-10; A498; NCI-H460; HOP-62; DU-145; SK-MEL-28.
Common to all, as to test: NCI tumour cell line growth inhibition, 48 h

In the case of `Cc1nnc(Sc2nc(C#N)c(C#N)nc2Sc2nnc(C)s2)s1`, the GI50 in the assay with M14 was 8.2 µM (inactive); in the assay with A549, 22.1 µM (inactive); in the assay on SR it was 9.79 µM (inactive); in the assay on UACC-257 it was 10.4 µM (inactive); in the assay on SK-OV-3, 17.2 µM (inactive); in the assay with OVCAR-8, 2.47 µM (inactive). The GI50 with ACHN was 2.93 µM (inactive); in the assay with RXF 393, 1.92 µM (inactive); in the assay on K562 it was 3.48 µM (inactive); in the assay on NCI-H226, 20.8 µM (inactive); in the assay on EKVX it was 19.3 µM (inactive); in the assay with Malme-3M it was 0.139 µM (active). Further, the GI50 was 1.67 µM (inactive) with SW-620; 11.1 µM (inactive) in the assay with TK-10; 18.7 µM (inactive) in the assay on A498; 28.6 µM (inactive) with NCI-H460; 23.3 µM (inactive) with HOP-62; 14.9 µM (inactive) in the assay on DU-145. Further, the GI50 with SK-MEL-28 was 10.5 µM (inactive).
As for `C/C(=N\NC(=S)N1CCN(c2ccccn2)CC1)c1cccc2cccnc12`, the GI50 is 5.15 µM (inactive) in the assay on M14; 5.25 µM (inactive) with A549; 0.859 µM (active) with SR; 2.84 µM (inactive) in the assay on UACC-257; 11.4 µM (inactive) with SK-OV-3; 3.43 µM (inactive) in the assay on OVCAR-8. Besides, the GI50 in the assay on ACHN is 4.01 µM (inactive); in the assay with RXF 393, 3.33 µM (inactive); with K562, 2.46 µM (inactive); in the assay with NCI-H226, 5.77 µM (inactive); in the assay with EKVX, 3.59 µM (inactive); with Malme-3M, 4.76 µM (inactive). For the same compound, the GI50 is 4.33 µM (inactive) in the assay on SW-620; 6.31 µM (inactive) in the assay on TK-10; 12 µM (inactive) in the assay with A498; 3.51 µM (inactive) in the assay on NCI-H460; 6.05 µM (inactive) in the assay with HOP-62; 3.56 µM (inactive) in the assay with DU-145. Also, in the assay on SK-MEL-28, the GI50 is 6.58 µM (inactive).
Take `COc1cccc2c1C(=O)C1=C(C2=O)C(O)CC(C)(C)O1` (configuration not stated): the GI50 in the assay on M14 is 54.6 µM (inactive); in the assay with A549, 32.1 µM (inactive); in the assay on SR, 16.3 µM (inactive); in the assay on UACC-257, 22.4 µM (inactive); with SK-OV-3 it was > 100 µM (inactive); in the assay on OVCAR-8, 27.7 µM (inactive). The GI50 in the assay on ACHN was 36.1 µM (inactive); in the assay on RXF 393, 71 µM (inactive); with K562, 21 µM (inactive); with NCI-H226, > 100 µM (inactive); in the assay with EKVX, 43.1 µM (inactive); in the assay on Malme-3M, 16.6 µM (inactive). In addition, the GI50 was 34.1 µM (inactive) in the assay with SW-620; > 100 µM (inactive) in the assay with TK-10; > 100 µM (inactive) in the assay on A498; 42.9 µM (inactive) with NCI-H460; > 100 µM (inactive) in the assay with HOP-62; > 100 µM (inactive) in the assay with DU-145. Also, the GI50 with SK-MEL-28 is > 100 µM (inactive).
In the case of `NCCCC(N)C(=O)O` (configuration not stated), the GI50 with M14, in the assay with A549, with SR, in the assay with UACC-257, in the assay on SK-OV-3 and in the assay with OVCAR-8 was > 100 µM (inactive) throughout. In addition, the GI50 in the assay on ACHN is > 100 µM (inactive); with RXF 393, > 100 µM (inactive); in the assay with K562 it was > 100 µM (inactive); with NCI-H226, 77.8 µM (inactive); with EKVX, > 100 µM (inactive); in the assay with Malme-3M, > 100 µM (inactive). Moreover, the GI50 in the assay with SW-620, with TK-10, with A498, in the assay with NCI-H460, in the assay on HOP-62 and in the assay on DU-145 was > 100 µM (inactive) in each case. The GI50 in the assay on SK-MEL-28 was > 100 µM (inactive).
Turning to `Cc1c(/C=N/NC(=S)N2CCCCC2)c(=O)n(-c2ccccc2)n1C`, the GI50 in the assay with M14 is 61.9 µM (inactive); with A549, 55.3 µM (inactive); with SR it was > 100 µM (inactive); in the assay on UACC-257, > 100 µM (inactive); in the assay on SK-OV-3, 68.1 µM (inactive); in the assay with OVCAR-8, 42.8 µM (inactive). Also, the GI50 in the assay on ACHN was 32.4 µM (inactive); with RXF 393, 26.5 µM (inactive); in the assay on K562, 36.6 µM (inactive); with NCI-H226 it was > 100 µM (inactive); in the assay with EKVX it was 43.8 µM (inactive); in the assay on Malme-3M, 54.1 µM (inactive). The GI50 was 74.1 µM (inactive) in the assay with SW-620; 61.2 µM (inactive) in the assay with TK-10; 24.3 µM (inactive) with A498; 37.1 µM (inactive) in the assay with NCI-H460; 88.9 µM (inactive) with HOP-62; > 100 µM (inactive) in the assay with DU-145. Moreover, the GI50 in the assay with SK-MEL-28 is 75.2 µM (inactive).
`C/C1=C/C(C)CC(C)OC(=O)C(C)NC(=O)C(Cc2ccc(O)c(I)c2)N(C)C(=O)C(C)NC(=O)C(C)C1` (configuration not stated): the GI50 in the assay with M14 is < 0.015 µM (active); with A549, < 0.01 µM (active); in the assay on SR, < 0.01 µM (active); with UACC-257 it was < 0.01 µM (active); in the assay on SK-OV-3, < 0.01 µM (active); with OVCAR-8, 0.0354 µM (active). Further, the GI50 in the assay on ACHN was < 0.01 µM (active); in the assay with RXF 393, < 0.01 µM (active); in the assay with K562, < 0.01 µM (active); with NCI-H226, < 0.0363 µM (active); with EKVX, 0.0262 µM (active); in the assay with Malme-3M it was < 0.0242 µM (active). In addition, the GI50 in the assay with SW-620 is < 0.01 µM (active); in the assay on TK-10, < 0.01 µM (active); with A498, < 0.01 µM (active); with NCI-H460 it was < 0.01 µM (active); with HOP-62, < 0.01 µM (active); in the assay with DU-145 it was 0.0302 µM (active). The GI50 in the assay with SK-MEL-28 is 0.0314 µM (active).
With `CC(=O)OC(C#N)CC(C)(C)/[N+]([O-])=[N+](\[O-])C(C)(C)CC(C#N)OC(C)=O` (configuration not stated), the GI50 with M14 was 14.4 µM (inactive); in the assay with A549, 30.1 µM (inactive); in the assay on SR, 2.41 µM (inactive); in the assay with UACC-257, 16.9 µM (inactive); with SK-OV-3, > 100 µM (inactive); in the assay with OVCAR-8, 16.1 µM (inactive). For the same compound, the GI50 with ACHN was 12.1 µM (inactive); in the assay with RXF 393, 12.8 µM (inactive); with K562, 3.77 µM (inactive); with NCI-H226, 20.7 µM (inactive); with EKVX, 16.7 µM (inactive); with Malme-3M it was 18.5 µM (inactive). The GI50 was 5.47 µM (inactive) with SW-620; 15.9 µM (inactive) with TK-10; 44.6 µM (inactive) in the assay on A498; 18 µM (inactive) in the assay on NCI-H460; 17.8 µM (inactive) in the assay with HOP-62; 18 µM (inactive) in the assay with DU-145. The GI50 with SK-MEL-28 was 26 µM (inactive).
With `CC1=[N+](C)CCCN1C`, the GI50 in the assay on M14, in the assay on A549, with SR, in the assay with UACC-257, in the assay with SK-OV-3 and in the assay with OVCAR-8 was > 100 µM (inactive) each time. The GI50 in the assay on ACHN, in the assay on RXF 393, in the assay with K562, in the assay on NCI-H226, with EKVX and in the assay with Malme-3M was > 100 µM (inactive) in each case. Besides, the GI50 in the assay with SW-620 was > 100 µM (inactive); in the assay on TK-10, > 100 µM (inactive); in the assay with A498, 8.69 µM (inactive); in the assay with NCI-H460 it was > 100 µM (inactive); with HOP-62 it was > 100 µM (inactive); with DU-145, > 100 µM (inactive). In addition, the GI50 with SK-MEL-28 is > 100 µM (inactive).
